Test results taken from US9828592B2, “Chemically modified sophorolipids and uses thereof” (Sophoro Biotechnologies, LLC, priority 2011, dated 2017).

How the values were obtained:
[1] = test system: Trichoderma reesei (Rut-C30); assay: Cellulase induction studies in Trichoderma reesei culture, CMC endo-glucanase activity assay; format: cell-based; conditions: for CMC (U/mL) at day 5: Example 4, inducer at 2% as carbon source, no glucose
Description: Trichoderma reesei (Rut-C30) was selected as the host for cellulase expression in this Example. To prepare for the cellulase induction studies, a citrate minimal media was first prepared. The media composition described by England et al. in U.S. 2010/0009408 was modified to include 14.4 g/L citric acid, 4 g/L KH2PO4, 6.35 g/L (NH4)2SO4, 2 g/L MgSO4-7H2O, 0.53 g/L CaCl2-2H2O, and trace metal elements at 1 mL/L, which included 5 g/L FeSO4-7H2O, 1.6 g/L MnSO4—H2O, and 1.4 g/L ZnSO4-7H2O. The final pH was adjusted to 5.50 using NaOH.
The Trichoderma reesei (ATCC56765) was used in this Example. This fungal strain was developed as a catabolic de-repressed strain from classic mutagenesis of parent strain NG14 and the wild type QM6A. See Seidl et al., BMC Genomics, 9:327 (2008). To propagate Trichoderma, the freeze-dried stock from ATCC was first dissolved in sterile deionized water, and then transferred onto a potato dextrose agar (PDA) plate (Teknova P0047) using a sterile loop. The PDA plate was maintained at room temperature under white fluorescent light. After approximately seven days, green Trichoderma spores were observed. In addition, 60% (w/v) glucose, 15% (w/v) lactose, and 15% (w/v) cellobiose stocks were prepared and used both as controls and as the carbon source for Trichoderma growth.
To initiate cellulase induction studies for each of the sophorolipid mixtures prepared in Examples 1-3 above, 0.5 mL of glucose stock was first placed into 14 mL of citrate minimal media inside a 125 mL baffled flask. […]
To commence the fermentation, an approximately 1 cm×1 cm square agar plug was removed from the Trichoderma spore-containing PDA agar plate using a sterile loop and placed into the cellulase induction culture media. […] At five days of fermentation, the samples were collected and analyzed for carboxymethylcellulose (CMC) endo-glucanase activity. […] It should be understood that one CMC unit denotes the activity that liberates 1 μmol of reducing sugars (expressed as glucose equivalents) in one minute under the specified conditions of 50° C. and pH 4.8.

[2] = test system: Trichoderma reesei (Rut-C30); assay: as above; format: cell-based; conditions: for Cellulase activity U/mL at day 3 / Cellulase activity U/mg at day 3: 2% glucose
Trichoderma viride = conditions: Mandels et al. 1962; cited from earlier work
[3] = Example 8, 1.0 g/L (15 mg/15 mL, 2.92 mM)
[4] = Example 9, 1.0 g/L (15 mg/15 mL, 2.92 mM)
[5] = Example 8, 0.13 g/L (2.0 mg/15 mL, 0.38 mM)
[6] = Example 8, 1.3 g/L (20 mg/15 mL, 3.90 mM)
[7] = Example 9, 0.13 g/L (2.0 mg/15 mL, 0.38 mM)
[8] = Example 9, 1.3 g/L (20 mg/15 mL, 3.90 mM)

| SMILES | cellulase activity compared to the glucose control ([1]; Example 4, day 5, in words) | CMC (U/mL) at day 5 [1] | Cellulase activity U/mL at day 3 [2, 3] | Cellulase activity U/mg at day 3 [2, 3] | Cellulase activity U/mL at day 3 [2, 4] | Cellulase activity U/mg at day 3 [2, 4] | CMC (U/mL) at day 5 ([2]; Example 5, inducer at 2%, no glucose) | increase in cellulase production compared to cellobiose (Trichoderma viride) | Cellulase activity U/mL at day 3 [2, 5] | Cellulase activity U/mg at day 3 [2, 5] | Cellulase activity U/mL at day 3 [2, 6] | Cellulase activity U/mg at day 3 [2, 6] | Cellulase activity U/mL at day 3 [2, 7] | Cellulase activity U/mg at day 3 [2, 7] | Cellulase activity U/mL at day 3 [2, 8] | Cellulase activity U/mg at day 3 [2, 8] |
| --- | --- | --- | --- | --- | --- | --- | --- | --- | --- | --- | --- | --- | --- | --- | --- | --- |
| O=C[C@H](O)[C@@H](O)[C@H](O[C@@H]1O[C@H](CO)[C@@H](O)[C@H](O)[C@H]1O)[C@H](O)CO [cellobiose] | marginal cellulase activity | 2.05 U/mL | 0.34 U/mL | 0.34 U/mg | 0.34 U/mL | 0.34 U/mg |  |  |  |  |  |  |  |  |  |  |
| OC[C@H]1O[C@@H](O[C@H]2[C@H](O)[C@@H](O)C(O)O[C@@H]2CO)[C@H](O)[C@@H](O)[C@H]1O (stereo partly drawn) [lactose] |  | 10.1 U/mL | 0.64 U/mL | 0.64 U/mg | 0.64 U/mL | 0.64 U/mg | 8.29 U/mL |  |  |  |  |  |  |  |  |  |
| OC[C@H]1O[C@@H](O[C@@H]2[C@@H](O)[C@H](O)[C@@H](CO)O[C@@H]2O)[C@H](O)[C@@H](O)[C@@H]1O [sophorose, 2-O-beta-D-glucopyranosyl-alpha-D-glucose] |  |  |  |  |  |  |  | about 2500 times | 3.58 U/mL | 26.9 U/mg | 15.0 U/mL | 11.2 U/mg | 3.58 U/mL | 26.9 U/mg | 15.0 U/mL | 11.2 U/mg |
